Columns and labels:
[1] = tested on: primary peritoneal macrophages; assay: IL-1β ELISA / inflammasome activation in macrophages; type: cell-based, C57BL/6 mice
Description: FIG. 5 is the results indicating the present compound MSL reduces the activation of inflammasome and enhances the function of mitochondria. FIG. 5A is the results of the experiment in which primary peritoneal macrophages were isolated and treated with palmitic acid, LPS and MSL and then the concentration of IL-beta was measured from the supernatant using ELISA. Error bars, S.D. **, P<0.01; ***, P<0.001, two-way ANOVA. […]
Screening of autophagy enhancer. […] Firefly luciferase was determined after mixing 5 μl of lysate with 25 μl of Luciferase Assay Reagent II. Renilla luciferase was then determined after further addition of 20 ul of Stop&Glo Reagent. […] Cytotoxicity was determined by the measurement of LDH release in cell culture media using the LDH kit (Roche), according to the protocol from the manufacturer. […] Imaging and image quantification. […] Formation of acidic vesicular organelles was quantitated by staining the cells with acridine orange (Invitrogen, 5 ug/ml, 10 min). […] Cells or tissues were solubilized in lysis buffer supplemented with protease and phosphatase inhibitors and protein concentration was measured by the Bradford method. Ten to 30 micrograms were loaded on 4-12% Bis-Tris gel (NUPAGE, Invitrogen) or 8-15% SDS-PAGE, transferred to PVDF membranes and analyzed by western blot using the ECL method (Pierce). […]

Hepa1c1c7 cells = assay: Lipid droplet clearance after PA and OA loading; type: cell-based

CSc1oc(-c2ccccc2)nc1S(=O)(=O)c1ccc(F)cc1 [MSL]
release of IL-1β measured by ELISA ([1]; PA in combination with LPS): significantly decreased | caspase-1 cleavage and IL-1 β maturation (Western blot) ([1]; data not shown): decreased | lipid content in cells loaded with PA and OA (Hepa1c1c7 cells): significantly reduced | content of lipid droplets stained BODIPY (Hepa1c1c7 cells; PA and OA loaded, 16 h): significantly decreased
